# Experimental data as given in PMC5765510, “One pot synthesis of GDP‐mannose by a multi‐enzyme cascade for enzymatic assembly of lipid‐linked oligosaccharides” (Biotechnology and Bioengineering, 2017).
# Columns and labels:
# Type in all cases: biochemical
# 1D-Ppk2 (His6-1D-Ppk2) = biological target: T1, 1D-Ppk2 (His6-1D-Ppk2) (Pseudomonas aeruginosa, UniProt Q9I154); assay: polyphosphate-dependent phosphorylation, HPAEC-UV; details: 4 mM PolyP14, 10 mM MgCl2, pH 7.5, 30 °C; reversible
# T1 construct: gene PA2428; N-terminal His6 tag, codon-optimised synthetic gene, pET-28a(+), expressed in E. coli BL21-Gold(DE3), IMAC purified, 38 kDa
# T1 sequence (Q9I154 1-304): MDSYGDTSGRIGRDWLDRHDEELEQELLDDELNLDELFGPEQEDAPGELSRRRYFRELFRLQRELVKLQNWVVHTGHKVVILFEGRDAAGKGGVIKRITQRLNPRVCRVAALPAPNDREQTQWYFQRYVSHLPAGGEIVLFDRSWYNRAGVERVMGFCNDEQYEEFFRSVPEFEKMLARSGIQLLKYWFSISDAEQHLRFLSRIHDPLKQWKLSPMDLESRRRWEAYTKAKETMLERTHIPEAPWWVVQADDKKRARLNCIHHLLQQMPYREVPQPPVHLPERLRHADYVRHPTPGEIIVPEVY
# His6-Glk = biological target: T2, His6-Glk (Escherichia coli, UniProt P0A6V8); assay: man6P formation, HPAEC-UV/CD; details: 10 mM MgCl2, pH 7.5, 30 °C
# T2 construct: N-terminal His6 tag, pET-28a(+), expressed in E. coli BL21-Gold(DE3), IMAC purified, 39 kDa
# T2 sequence (P0A6V8 1-321): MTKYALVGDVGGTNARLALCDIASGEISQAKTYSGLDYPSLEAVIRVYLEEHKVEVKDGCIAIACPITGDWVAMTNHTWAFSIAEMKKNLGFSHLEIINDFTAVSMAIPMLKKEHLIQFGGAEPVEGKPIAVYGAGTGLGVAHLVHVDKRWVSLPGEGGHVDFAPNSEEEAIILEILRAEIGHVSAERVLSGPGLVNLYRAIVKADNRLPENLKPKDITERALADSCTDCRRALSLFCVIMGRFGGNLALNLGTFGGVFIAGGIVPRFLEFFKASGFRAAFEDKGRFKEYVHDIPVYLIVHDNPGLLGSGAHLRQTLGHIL
# [1] = biological target: T3, ManB-His6 (ManB-His6/ManC) (Escherichia coli, UniProt P24175); assay: man1P/man6P equilibrium, HPAEC-CD; details: 1.8 mM, 0.25 mM glucose-1,6-bisphosphate, 10 mM MgCl2, pH 7.5, 30 °C
# T3 construct: C-terminal His6 ManB co-expressed and co-purified with untagged ManC, E. coli BL21-Gold(DE3), 50 kDa; ManB/ManC ratio only estimated 1:1; with Mannose-1-phosphate guanylyltransferase
# T3 sequence (P24174 whole entry): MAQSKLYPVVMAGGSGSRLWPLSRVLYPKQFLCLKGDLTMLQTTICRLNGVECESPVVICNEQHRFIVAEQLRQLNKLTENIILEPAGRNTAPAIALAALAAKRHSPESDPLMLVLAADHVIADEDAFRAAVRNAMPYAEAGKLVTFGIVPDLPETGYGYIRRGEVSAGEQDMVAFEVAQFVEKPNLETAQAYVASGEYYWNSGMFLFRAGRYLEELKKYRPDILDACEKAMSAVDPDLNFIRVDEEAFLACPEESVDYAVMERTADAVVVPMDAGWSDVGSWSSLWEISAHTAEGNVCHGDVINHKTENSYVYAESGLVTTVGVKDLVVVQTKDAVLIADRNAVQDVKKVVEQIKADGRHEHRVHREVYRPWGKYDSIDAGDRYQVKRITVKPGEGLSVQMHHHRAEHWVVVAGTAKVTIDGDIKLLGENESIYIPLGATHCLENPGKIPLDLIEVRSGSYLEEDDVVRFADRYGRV
# T3 sequence (P24175 whole entry): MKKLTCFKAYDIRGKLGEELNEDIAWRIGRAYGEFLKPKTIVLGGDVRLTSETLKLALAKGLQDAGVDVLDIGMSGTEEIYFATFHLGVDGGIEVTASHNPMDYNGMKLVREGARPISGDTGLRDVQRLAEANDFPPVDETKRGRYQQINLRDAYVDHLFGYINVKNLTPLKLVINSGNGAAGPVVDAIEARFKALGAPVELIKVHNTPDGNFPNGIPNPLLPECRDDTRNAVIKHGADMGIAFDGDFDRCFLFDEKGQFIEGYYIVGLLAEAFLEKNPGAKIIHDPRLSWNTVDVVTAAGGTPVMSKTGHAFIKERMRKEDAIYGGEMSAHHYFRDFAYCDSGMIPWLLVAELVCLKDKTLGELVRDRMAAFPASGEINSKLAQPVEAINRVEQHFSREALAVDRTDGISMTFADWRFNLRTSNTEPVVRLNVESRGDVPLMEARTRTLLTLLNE
smiles,measurement,setting,value
Nc1ncnc2c1ncn2[C@@H]1O[C@H](COP(=O)(O)OP(=O)(O)O)[C@@H](O)[C@H]1O [ADP],"polyphosphate-dependent phosphorylation, HPAEC-UV",1D-Ppk2 (His6-1D-Ppk2),"phosphorylation of ADP and GDP, respectively, by His6‐1D‐Ppk2 are equilibrium reactions"
Nc1ncnc2c1ncn2[C@@H]1O[C@H](COP(=O)(O)OP(=O)(O)OP(=O)(O)O)[C@@H](O)[C@H]1O [ATP],"man6P formation, HPAEC-UV/CD",His6-Glk; mannose co-substrate,conversion of ATP and mannose to man6P and ADP is irreversible
Nc1nc2c(ncn2[C@@H]2O[C@H](COP(=O)(O)OP(=O)(O)O)[C@@H](O)[C@H]2O)c(=O)[nH]1 [GDP],"polyphosphate-dependent phosphorylation, HPAEC-UV",1D-Ppk2 (His6-1D-Ppk2),"phosphorylation of ADP and GDP, respectively, by His6‐1D‐Ppk2 are equilibrium reactions"
O=P(O)(O)O[C@H]1O[C@H](CO)[C@@H](O)[C@H](O)[C@@H]1O [man1P],"man1P/man6P equilibrium, HPAEC-CD",[1],equilibrium conversion of man1P to man6P catalyzed by the ManB‐His6/ManC complex
OC[C@H]1OC(O)[C@@H](O)[C@@H](O)[C@@H]1O (some centres unmarked) [mannose],"man6P formation, HPAEC-UV/CD","His6-Glk; ATP 1.7 mM, irreversible",conversion of ATP and mannose to man6P and ADP is irreversible
